The supplement of paper PMC11061612

What was measured:
Experiment in all cases: combination Emax (second highest fraction inhibited in the dose matrix, 72 h); higher = more inhibition; extreme values may be limits of the assay
[1] = system: SNG-M (Endometrial Carcinoma)
How it was run: (§1)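 Cell lines grown in DMEM/F12 or RPMI with 10% FBS were plated in 1536-well plates and held 24 hours at 37°C, 5% CO2 before 72 hours of exposure to two-drug dose matrices, with DMSO typically at 0.2%. CellTiter-Glo 2.0 luminescence gave viability, which was converted to inhibition. Vehicle wells were set to 0 and blank wells to 1. Combination Emax is the second-highest inhibition in the matrix, and Bliss excess is the observed combination effect minus the expected EA + EB − EA·EB, where EA and EB are the single-agent effects.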

D-392MG (Glioblastoma) = system: D-392MG (Glioblastoma)
How it was run: as §1

[2] = system: D-283MED (Other Solid Carcinomas)
How it was run: as §1

[3] = system: YT (Other Blood Carcinomas)
How it was run: as §1

[4] = system: SLVL (B-Cell Non-Hodgkin's Lymphoma)
How it was run: as §1

[5] = system: SK-UT-1 (Other Solid Carcinomas)
How it was run: as §1

[6] = system: SK-LMS-1 (Other Solid Carcinomas)
How it was run: as §1

[7] = system: FU-OV-1 (Ovarian Carcinoma)
How it was run: as §1

EW-22 (Ewing's Sarcoma) = system: EW-22 (Ewing's Sarcoma)
How it was run: as §1

HCC38 (Breast Carcinoma) = system: HCC38 (Breast Carcinoma)
How it was run: as §1

[8] = system: WSU-DLCL2 (B-Cell Non-Hodgkin's Lymphoma)
How it was run: as §1

[9] = system: P31-FUJ (Acute Myeloid Leukemia)
How it was run: as §1

[10] = system: BICR78 (Oral Cavity Carcinoma)
How it was run: as §1

[11] = system: NOMO-1 (Acute Myeloid Leukemia)
How it was run: as §1

[12] = system: DOK (Oral Cavity Carcinoma)
How it was run: as §1

Saos-2 (Osteosarcoma) = system: Saos-2 (Osteosarcoma)
How it was run: as §1

SK-MEL-1 (Melanoma) = system: SK-MEL-1 (Melanoma)
How it was run: as §1

[13] = system: SW948 (Colorectal Carcinoma)
How it was run: as §1

[14] = system: HLE (Hepatocellular Carcinoma)
How it was run: as §1

H4 (Low Grade Glioma) = system: H4 (Low Grade Glioma)
How it was run: as §1

C[C@@H](Nc1cc(F)cc(F)c1)c1cc(C(=O)N(C)C)cc2c(=O)cc(N3CCOCC3)oc12 [AZD8186] + C1CN(CCC1(C(=O)N[C@@H](CCO)C2=CC=C(C=C2)Cl)N)C3=NC=NC4=C3C=CN4 [AZD5363] (first compound max 10 µM, 7x7, partner max 10 µM)
combination Emax [1]: 0.429 | combination Emax (D-392MG (Glioblastoma)): 0.363 | combination Emax [2]: 0.485 | combination Emax [3]: 0.247 | combination Emax [4]: 0.709 | combination Emax [5]: 0.344 | combination Emax [6]: 0.494 | combination Emax [7]: 0.401 | combination Emax (EW-22 (Ewing's Sarcoma)): 0.45 | combination Emax (HCC38 (Breast Carcinoma)): 0.262 | combination Emax [8]: 1 | combination Emax [9]: 0.521 | combination Emax [10]: 0.394 | combination Emax [11]: 0.45 | combination Emax [12]: 0.655 | combination Emax (Saos-2 (Osteosarcoma)): 0.425 | combination Emax (SK-MEL-1 (Melanoma)): 0.154 | combination Emax [13]: 0.656 | combination Emax [14]: 0.144 | combination Emax (H4 (Low Grade Glioma)): 0.597

C[C@@H](Nc1cc(F)cc(F)c1)c1cc(C(=O)N(C)C)cc2c(=O)cc(N3CCOCC3)oc12 [AZD8186] + CC(=O)c1c(C)c2cnc(Nc3ccc(N4CCNCC4)cn3)nc2n(C2CCCC2)c1=O [Palbociclib] (first compound max 10 µM, 7x7, partner max 10 µM)
combination Emax [1]: 0.432 | combination Emax (D-392MG (Glioblastoma)): 0.446 | combination Emax [2]: 0.831 | combination Emax [3]: 0.448 | combination Emax [4]: 0.439 | combination Emax [5]: 0.231 | combination Emax [6]: 0.808 | combination Emax [7]: 0.444 | combination Emax (EW-22 (Ewing's Sarcoma)): 0.45 | combination Emax (HCC38 (Breast Carcinoma)): 0.209 | combination Emax [8]: 0.762 | combination Emax [9]: 0.277 | combination Emax [10]: 0.385 | combination Emax [11]: 0.568 | combination Emax [12]: 0.538 | combination Emax (Saos-2 (Osteosarcoma)): 0.329 | combination Emax (SK-MEL-1 (Melanoma)): 0.265 | combination Emax [13]: 0.433 | combination Emax [14]: 0.197 | combination Emax (H4 (Low Grade Glioma)): 0.697

C[C@@H](Oc1cc(-c2cnn(C3CCNCC3)c2)cnc1N)c1c(Cl)ccc(F)c1Cl [Crizotinib] + CC1=C(C(=CC=C1)Cl)NC(=O)C2=CN=C(S2)NC3=CC(=NC(=N3)C)N4CCN(CC4)CCO [Dasatinib] (first compound max 10 µM, 7x7, partner max 2 µM)
combination Emax [1]: 0.973 | combination Emax (D-392MG (Glioblastoma)): 0.921 | combination Emax [2]: 0.979 | combination Emax [3]: 0.885 | combination Emax [4]: 0.761 | combination Emax [5]: 0.454 | combination Emax [6]: 0.949 | combination Emax [7]: 0.682 | combination Emax (EW-22 (Ewing's Sarcoma)): 0.766 | combination Emax (HCC38 (Breast Carcinoma)): 0.348 | combination Emax [8]: 0.751 | combination Emax [9]: 0.792 | combination Emax [10]: 0.829 | combination Emax [11]: 0.528 | combination Emax [12]: 1 | combination Emax (Saos-2 (Osteosarcoma)): 0.986 | combination Emax (SK-MEL-1 (Melanoma)): 0.916 | combination Emax [13]: 0.793 | combination Emax [14]: 0.404 | combination Emax (H4 (Low Grade Glioma)): 0.963

C[C@@H](Oc1cc(-c2cnn(C3CCNCC3)c2)cnc1N)c1c(Cl)ccc(F)c1Cl [Crizotinib] + Cn1cnc2c(F)c(Nc3ccc(Br)cc3Cl)c(C(=O)NOCCO)cc21 [Selumetinib] (first compound max 10 µM, 7x7, partner max 10 µM)
combination Emax [1]: 0.783 | combination Emax (D-392MG (Glioblastoma)): 0.572 | combination Emax [2]: 0.973 | combination Emax [3]: 0.621 | combination Emax [4]: 0.742 | combination Emax [5]: 0.331 | combination Emax [6]: 0.78 | combination Emax [7]: 0.673 | combination Emax (EW-22 (Ewing's Sarcoma)): 0.78 | combination Emax (HCC38 (Breast Carcinoma)): 0.0593 | combination Emax [8]: 0.596 | combination Emax [9]: 0.755 | combination Emax [10]: 0.456 | combination Emax [11]: 0.889 | combination Emax [12]: 0.933 | combination Emax (Saos-2 (Osteosarcoma)): 0.883 | combination Emax (SK-MEL-1 (Melanoma)): 0.916 | combination Emax [13]: 0.899 | combination Emax [14]: 0.365 | combination Emax (H4 (Low Grade Glioma)): 0.787

O=C(c1cc(Cc2n[nH]c(=O)c3ccccc23)ccc1F)N1CCN(C(=O)C2CC2)CC1 [Olaparib] + CC1(C)CCC(CN2CCN(c3ccc(C(=O)NS(=O)(=O)c4ccc(NCC5CCOCC5)c([N+](=O)[O-])c4)c(Oc4cnc5[nH]ccc5c4)c3)CC2)=C(c2ccc(Cl)cc2)C1 [Venetoclax] (first compound max 10 µM, 7x7, partner max 1 µM)
combination Emax [1]: 0.179 | combination Emax (D-392MG (Glioblastoma)): 0.114 | combination Emax [2]: 0.666 | combination Emax [3]: 0.276 | combination Emax [4]: 0.7 | combination Emax [5]: 0.162 | combination Emax [6]: 0.183 | combination Emax [7]: 0.199 | combination Emax (EW-22 (Ewing's Sarcoma)): 0.921 | combination Emax (HCC38 (Breast Carcinoma)): 0.179 | combination Emax [8]: 0.452 | combination Emax [9]: 0.166 | combination Emax [10]: 0.108 | combination Emax [11]: 0.383 | combination Emax [12]: 0.108 | combination Emax (Saos-2 (Osteosarcoma)): 0.249 | combination Emax (SK-MEL-1 (Melanoma)): 0.151 | combination Emax [13]: 0.122 | combination Emax [14]: 0.0962 | combination Emax (H4 (Low Grade Glioma)): 0.267

O=C(c1cc(Cc2n[nH]c(=O)c3ccccc23)ccc1F)N1CCN(C(=O)C2CC2)CC1 [Olaparib] + CN(CC[C@H](CSC1=CC=CC=C1)NC2=C(C=C(C=C2)S(=O)(=O)NC(=O)C3=CC=C(C=C3)N4CCC(CC4)[C@H](C5=CC=CC=C5C6=CC=C(C=C6)Cl)O)S(=O)(=O)C(F)(F)F)CCO [AZD4320] (first compound max 10 µM, 7x7, partner max 1 µM)
combination Emax [1]: 0.401 | combination Emax (D-392MG (Glioblastoma)): 0.321 | combination Emax [2]: 0.914 | combination Emax [3]: 0.343 | combination Emax [4]: 0.982 | combination Emax [5]: 0.466 | combination Emax [6]: 0.494 | combination Emax [7]: 0.226 | combination Emax (EW-22 (Ewing's Sarcoma)): 0.988 | combination Emax (HCC38 (Breast Carcinoma)): 0.482 | combination Emax [8]: 0.876 | combination Emax [9]: 0.568 | combination Emax [10]: 0.0831 | combination Emax [11]: 0.348 | combination Emax [12]: 0.191 | combination Emax (Saos-2 (Osteosarcoma)): 0.326 | combination Emax (SK-MEL-1 (Melanoma)): 0.42 | combination Emax [13]: 0.303 | combination Emax [14]: 0.274 | combination Emax (H4 (Low Grade Glioma)): 0.389
